Reference: PubChem BioAssay (NCI)
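At the GI50, growth is halved. At the TGI there is no net growth.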

Assays:
Experiment in all cases: NCI-60 cell line screen, 384-well format
HT29 colon = system: HT29 colon
SF-539 CNS = system: SF-539 CNS
SF-268 CNS = system: SF-268 CNS
U251 glioblastoma = system: U251 glioblastoma
UACC-257 melanoma = system: UACC-257 melanoma
RPMI-8226 leukemia = system: RPMI-8226 leukemia
HOP-62 NSCLC = system: HOP-62 NSCLC
M14 melanoma = system: M14 melanoma
NCI-H23 lung = system: NCI-H23 lung
TK-10 renal = system: TK-10 renal
SK-MEL-2 melanoma = system: SK-MEL-2 melanoma
MDA-MB-231 breast = system: MDA-MB-231 breast
OVCAR-4 ovarian = system: OVCAR-4 ovarian
DU-145 prostate = system: DU-145 prostate
SF-295 CNS = system: SF-295 CNS
A498 renal = system: A498 renal
SK-MEL-28 melanoma = system: SK-MEL-28 melanoma
SW-620 colon = system: SW-620 colon
SN12C renal = system: SN12C renal
SK-OV-3 ovarian = system: SK-OV-3 ovarian
MALME-3M melanoma = system: MALME-3M melanoma
ACHN renal = system: ACHN renal
NCI/ADR-RES ovarian = system: NCI/ADR-RES ovarian
SNB-19 CNS = system: SNB-19 CNS
PC-3 prostate = system: PC-3 prostate
MOLT-4 leukemia = system: MOLT-4 leukemia
NCI-H522 lung = system: NCI-H522 lung
OVCAR-5 ovarian = system: OVCAR-5 ovarian
OVCAR-3 ovarian = system: OVCAR-3 ovarian
T-47D breast = system: T-47D breast
IGROV1 ovarian = system: IGROV1 ovarian
K-562 leukemia = system: K-562 leukemia
MDA-MB-468 breast = system: MDA-MB-468 breast
HCT-15 colon = system: HCT-15 colon
KM12 colon = system: KM12 colon
NCI-H226 lung = system: NCI-H226 lung
HOP-92 NSCLC = system: HOP-92 NSCLC
HL-60(TB) leukemia = system: HL-60(TB) leukemia
UACC-62 melanoma = system: UACC-62 melanoma
786-0 renal = system: 786-0 renal
UO-31 renal = system: UO-31 renal
OVCAR-8 ovarian = system: OVCAR-8 ovarian
CAKI-1 renal = system: CAKI-1 renal
MCF7 breast = system: MCF7 breast
A549 NSCLC = system: A549 NSCLC
RXF 393 renal = system: RXF 393 renal
CCRF-CEM leukemia = system: CCRF-CEM leukemia
MDA-MB-435 melanoma = system: MDA-MB-435 melanoma
NCI-H322M lung = system: NCI-H322M lung
HS 578T breast = system: HS 578T breast
BT-549 breast = system: BT-549 breast
HCT-116 colon = system: HCT-116 colon
SNB-75 CNS = system: SNB-75 CNS

`CCCCC(=O)OCC(=O)[C@]1(O)Cc2c(O)c3c(c(O)c2[C@@H](OC2CC(NC(=O)C(F)(F)F)C(O)C(C)O2)C1)C(=O)c1c(OC)cccc1C3=O` (some centres undefined) was tested, and the GI50 (HT29 colon) was 0.303 µM, the TGI (HT29 colon) was 2.29 µM and the GI50 (SF-539 CNS) was 0.0731 µM. It also gave a TGI (SF-539 CNS) of 1.34 µM, a GI50 (SF-268 CNS) of 0.0702 µM and a TGI (SF-268 CNS) of 2.11 µM. For the same compound, the GI50 (U251 glioblastoma) was 0.045 µM, the TGI (U251 glioblastoma) was 10.4 µM and the GI50 (UACC-257 melanoma) was 0.404 µM. For the same compound, the TGI (UACC-257 melanoma) was 1.74 µM, the GI50 (RPMI-8226 leukemia) was 0.0129 µM and the TGI (RPMI-8226 leukemia) was 0.036 µM. For the same compound, the GI50 (HOP-62 NSCLC) was 0.0421 µM, the TGI (HOP-62 NSCLC) was 0.327 µM and the GI50 (M14 melanoma) was 0.0732 µM. For the same compound, the TGI (M14 melanoma) was 1.38 µM, the GI50 (NCI-H23 lung) was 0.0603 µM and the TGI (NCI-H23 lung) was 1.15 µM. The GI50 (TK-10 renal) was 0.997 µM, the TGI (TK-10 renal) was 5.09 µM and the GI50 (SK-MEL-2 melanoma) was 0.372 µM. It also gave a TGI (SK-MEL-2 melanoma) of 0.991 µM, a GI50 (MDA-MB-231 breast) of 0.126 µM and a TGI (MDA-MB-231 breast) of 2.1 µM. It also gave a GI50 (OVCAR-4 ovarian) of 1.68 µM, a TGI (OVCAR-4 ovarian) of 7.01 µM and a GI50 (DU-145 prostate) of 0.0371 µM. The TGI (DU-145 prostate) was 1 µM, the GI50 (SF-295 CNS) was 0.0536 µM and the TGI (SF-295 CNS) was 1.46 µM. It also gave a GI50 (A498 renal) of 0.0875 µM, a TGI (A498 renal) of 2.87 µM and a GI50 (SK-MEL-28 melanoma) of 0.468 µM. For the same compound, the TGI (SK-MEL-28 melanoma) was 2.02 µM, the GI50 (SW-620 colon) was 0.0753 µM and the TGI (SW-620 colon) was 16.2 µM. It also gave a GI50 (SN12C renal) of 0.0606 µM, a TGI (SN12C renal) of 1.37 µM and a GI50 (SK-OV-3 ovarian) of 0.107 µM. For the same compound, the TGI (SK-OV-3 ovarian) was 5.44 µM, the GI50 (MALME-3M melanoma) was 0.188 µM and the TGI (MALME-3M melanoma) was 1.66 µM. For the same compound, the GI50 (ACHN renal) was 0.213 µM, the TGI (ACHN renal) was 1.89 µM and the GI50 (NCI/ADR-RES ovarian) was 7.46 µM. The TGI (NCI/ADR-RES ovarian) was 44.1 µM, the GI50 (SNB-19 CNS) was 0.0648 µM and the TGI (SNB-19 CNS) was 11.9 µM. For the same compound, the GI50 (PC-3 prostate) was 1.02 µM, the TGI (PC-3 prostate) was 4.02 µM and the TGI (MOLT-4 leukemia) was 0.0104 µM. The GI50 (NCI-H522 lung) was 0.101 µM, the TGI (NCI-H522 lung) was 1 µM and the GI50 (OVCAR-5 ovarian) was 1.24 µM. It also gave a TGI (OVCAR-5 ovarian) of 5.62 µM, a GI50 (OVCAR-3 ovarian) of 1.2 µM and a TGI (OVCAR-3 ovarian) of 44.5 µM. For the same compound, the GI50 (T-47D breast) was 0.0962 µM, the TGI (T-47D breast) was 2.57 µM and the GI50 (IGROV1 ovarian) was 1.11 µM. It also gave a TGI (IGROV1 ovarian) of 3.86 µM, a GI50 (K-562 leukemia) of 0.104 µM and a TGI (K-562 leukemia) of 1.76 µM. For the same compound, the GI50 (MDA-MB-468 breast) was 0.0299 µM, the TGI (MDA-MB-468 breast) was 0.0859 µM and the GI50 (HCT-15 colon) was 0.0985 µM. It also gave a TGI (HCT-15 colon) of 1.62 µM, a GI50 (KM12 colon) of 0.0996 µM and a TGI (KM12 colon) of 1.7 µM. The GI50 (NCI-H226 lung) was 0.122 µM, the TGI (NCI-H226 lung) was 1.19 µM and the GI50 (HOP-92 NSCLC) was 0.142 µM. For the same compound, the TGI (HOP-92 NSCLC) was 19.2 µM, the TGI (HL-60(TB) leukemia) was 0.0166 µM and the GI50 (UACC-62 melanoma) was 0.0506 µM. It also gave a TGI (UACC-62 melanoma) of 1.02 µM, a GI50 ([…]-0 renal) of 0.0642 µM and a TGI (786-0 renal) of 1.98 µM. The GI50 (UO-31 renal) was 1.48 µM, the TGI (UO-31 renal) was 2.99 µM and the GI50 (OVCAR-8 ovarian) was 0.0733 µM. For the same compound, the TGI (OVCAR-8 ovarian) was 1.81 µM, the GI50 (CAKI-1 renal) was 0.128 µM and the TGI (CAKI-1 renal) was 2.53 µM. The GI50 (MCF7 breast) was 0.0849 µM, the TGI (MCF7 breast) was 7.56 µM and the GI50 (A549 NSCLC) was 0.0844 µM. For the same compound, the TGI (A549 NSCLC) was 1.78 µM, the GI50 (RXF 393 renal) was 0.32 µM and the TGI (RXF 393 renal) was 1.94 µM. The GI50 (CCRF-CEM leukemia) was 0.0173 µM, the TGI (CCRF-CEM leukemia) was 0.0323 µM and the GI50 (MDA-MB-435 melanoma) was 0.738 µM. It also gave a TGI (MDA-MB-435 melanoma) of 2.63 µM, a GI50 (NCI-H322M lung) of 2.42 µM and a TGI (NCI-H322M lung) of 15.2 µM. It also gave a GI50 (HS 578T breast) of 0.122 µM, a TGI (HS 578T breast) of 1.87 µM and a GI50 (BT-549 breast) of 0.0738 µM. It also gave a TGI (BT-549 breast) of 1.44 µM, a GI50 (HCT-116 colon) of 0.049 µM and a TGI (HCT-116 colon) of 34 µM. For the same compound, the GI50 (SNB-75 CNS) was 0.142 µM and the TGI (SNB-75 CNS) was 1.29 µM.
